Molecules are shown by their SMILES. Non-standard residues stand in square brackets, D forms with d. Residues, ends and D or L forms follow the SMILES beside them.

For the assay, the system named is human subjects. Briefly: Testing of peptide 4 in human subjects for treatment of different diseases and conditions. The settings on record: 1 mg; for Duration: Single. It is filed as in vivo. As to the method:
The peptide having the sequence 4 was tested to determine its effect on a range of different diseases in humans, horses and cows.
The peptides were prepared as compositions containing 1 mg of peptide dissolved in 5 ml of a solution comprising water, bicarbonate and either benzyl alcohol or methanol.

As to `CC(=O)N[C@H](CC(C)C)C(=O)N1CCC[C@@H]1C(=O)N[C@H](CC(C)C)C(=O)N[C@H](C)C(=O)N[C@H](Cc1ccc(O)cc1)C(=O)N1CCC[C@@H]1C(=O)N[C@H](CCC(N)=O)C(=O)N[C@H](Cc1c[nH]c2ccccc12)C(=O)N[C@H](Cc1ccc(O)cc1)C(=O)NCC(=O)N1CCC[C@@H]1C(=O)N[C@@H](C(=O)N[C@H](Cc1c[nH]c2ccccc12)C(=O)N[C@H](CCC(=O)O)C(=O)N[C@H](Cc1ccccc1)C(=O)O)[C@H](C)O` [SEQ ID NO. 4, Ac-LPLAYPQWYGPTWEF] (Ac-[dL][dP][dL][dA][dY][dP][dQ][dW][dY]G[dP][dT][dW][dE][dF]-OH; C-terminus assumed), the Effect result (Cancer Pain from Adrenal Cancer, IM, Repeated) is “Moderate”; the Effect entry (Cancer Pain from Bone Metasta, IM, Repeated) is on record as “Pronounced”; the Effect entry (Cancer Pain from Lung Cancer, SC, Repeated) was “Pronounced”; the Effect result (Dermatitis, SC) was “Pronounced”; the Effect entry (Emphysema, SC) is “Moderate”; the Effect entry (Lymphodema, IM) is given as “Pronounced”. The Effect result (Osteoarthritis, Joint) was “Mild” and the Effect result (Tonsilitis, oral) was “Pronounced”. Further, the Duration result (Dermatitis, SC) is listed as “Single 96 hrs”; the Duration result (Emphysema, SC) is listed as “Single 48 hrs”; the Duration result (Lymphodema, IM) is given as “Single 96 hrs”; the Duration entry (Osteoarthritis, Joint) is given as “Single 48 hrs”; the Duration result (T1 Diabetes, IM) is “Single 96 hrs”; the Duration result (Tonsilitis, oral) was “Single 48 hrs”.

The record behind these values is patent publication US20170022258A1, “PEPTIDES FOR USE IN THE TREATMENT OF IL-1 RELATED DISEASES AND CONDITIONS” (C4M PHARMACEUTICALS PTY LTD., priority 2011, published 2017).
